PMC3118575 (Bioconjugate chemistry, 2011)

Tests used:
U87MG cells = assay: NIR fluorescence microscopy of fixed U87MG cells; assay type: cell-based, human
[1] = test system: MMP- and αvβ3 integrin receptor-positive U87MG tumor; assay: In vivo NIR fluorescence imaging of U87MG tumor-bearing mice; conditions: for Clearance from the blood and other organs / Fluorescent signals in the tumor over time: 0.5 nmol injected
MMP-2 = assay: In vitro MMP-2 enzyme specificity; assay type: biochemical
U87MG tumor = assay: Ex vivo biodistribution in tumors and organs; set-up: species or system mice; conditions: tumors and organs removed after 4 h time point; n = 3

Row | SMILES | Binding with receptor blocking by excess c(RGDyK) (U87MG cells; 30 min at 37 °C, blocking dose of c(RGDyK) 10 µM) | Fluorescent signals on cells (U87MG cells; 30 min incubation at 37 °C, without blocking) | Clearance from the blood and other organs ([1]; imaging for 4 h) | Fluorescent signals in the tumor over time ([1]; imaging for 4 h) | Recovery of fluorescence at different MMP-2 concentrations (MMP-2; MMP-2 0, 2, 5, 10, 20, 40 nM, 80 min incubation, n = 3) | Fluorescence recovery in the presence of MMP inhibitor (MMP-2; MMP-2 with homophenylalanine-hydroxamine acid based broad spectrum MMP inhibitor) | NIR fluorescence signal from the tumor with MMP inhibitor ([1]; 3 nmol i.v., MMP inhibitor intratumorally injected 30 min before) | Tumor uptake with excess unlabeled c(RGDyK) ([1]; 30 min post-injection, c(RGDyK) 200 nmol) | NIR fluorescent images compared to 6 ([1]; intravenous, 3 nmol of 4, from 1 h post-injection) | Visualization of MMP expression in MMP-positive tumor ([1]; intravenous, 4 at 3 nmol, imaging for 4 h) | Ex vivo biodistribution (U87MG tumor)
1 | CCN1C(=CC=CC=CC2=[N+](CCCCCC(=O)NCC(=O)N3CCC[C@H]3C(=O)N[C@@H](CC(C)C)C(=O)NCC(=O)N[C@H](C(=O)N[C@@H](CCCNC(=N)N)C(=O)NCC(=O)N[C@@H](CCCCN)C(=O)NCC(=O)NCC(=O)NCCCC[C@@H]3NC(=O)[C@@H](Cc4ccc(O)cc4)NC(=O)[C@H](CC(=O)O)NC(=O)CNC(=O)[C@H](CCCNC(=N)N)NC3=O)C(C)C)c3ccc4c(S(=O)(=O)O)cc(S(=O)(=O)O)cc4c3C2(C)C)C(C)(C)c2c1ccc1c(S(=O)(=O)[O-])cc(S(=O)(=O)O)cc21 [compound 5] | significantly decreased binding | strong positive fluorescent signals on the cell membranes | slowly cleared from the blood and other organs | gradually increased fluorescent signals in the tumor |  |  |  |  |  |  | 
2 | N=C(N)NCCC[C@@H]1NC(=O)[C@H](CCCCN)NC(=O)[C@@H](Cc2ccc(O)cc2)NC(=O)[C@H](CC(=O)O)NC(=O)CNC1=O [compound 7, reference compound] |  |  | slowly cleared from the blood and other organs | gradually increased fluorescent signals in the tumor |  |  |  |  |  |  | 
3 | CCN(CC)c1ccc2nc3ccc(N=Nc4ccc(N(C)CCCC(=O)NCCCC[C@H](NC(=O)CNC(=O)[C@H](CCCNC(=N)N)NC(=O)[C@@H](NC(=O)CNC(=O)[C@H](CC(C)C)NC(=O)[C@@H]5CCCN5C(=O)CNC(=O)CCCCC[N+]5=C(C=CC=CC=C6N(CC)c7ccc8c(S(=O)(=O)O)cc(S(=O)(=O)O)cc8c7C6(C)C)C(C)(C)c6c5ccc5c(S(=O)(=O)O)cc(S(=O)(=O)O)cc65)C(C)C)C(=O)NCC(=O)NCC(=O)NCCCC[C@@H]5NC(=O)[C@@H](Cc6ccc(O)cc6)NC(=O)[C@H](CC(=O)O)NC(=O)CNC(=O)[C@H](CCCNC(=N)N)NC5=O)cc4)cc3[n+](-c3ccccc3)c2c1 [compound 4] |  |  |  |  | dependent on the MMP-2 concentration | inhibited | significantly reduced | effectively blocked | brighter NIR fluorescent images compared to 6 | enabled visualization of MMP expression in an MMP-positive tumor | predominantly activated in the tumors among other organs
